Usually IC50 stands for the concentration needed to halve the response being measured. Broadly, the EC50 is the concentration giving half of the maximal effect. A word on the AC50: it is the midpoint of the concentration-response curve, whichever way the signal moves.

The target in test [1] is Photoreceptor-specific nuclear receptor (Homo sapiens, UniProt Q9Y5X4). Put plainly: ligands suppressing NR2E3 nuclear receptor activity – biochemical, TR-FRET, dose response (AID 463256). In kind it is functional. (Time-resolved FRET reads energy transfer from a long-lived donor to a nearby acceptor.)
In test [2] the target is T1, Endoribonuclease toxin MazF (Escherichia coli K-12, UniProt P0AE70). Put plainly: substrate-only fluorescence increase artefacts – biochemical, single-stranded RNase substrate, counter-screen for MazEF activator project, dose response (AID 588502). In kind it is functional. For orientation: The purpose of a counterscreen is to sort out artefacts and off-target activity.
T1 sequence (P0AE70 whole entry): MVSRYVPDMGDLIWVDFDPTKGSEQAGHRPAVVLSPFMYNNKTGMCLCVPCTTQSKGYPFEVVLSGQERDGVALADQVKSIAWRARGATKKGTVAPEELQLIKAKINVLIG

Test [3] has as its target Peroxisome proliferator-activated receptor gamma/Nuclear receptor corepressor 2 (Homo sapiens, UniProt P37231+Q9Y618). Put plainly: Counterscreen for NR2E3 inverse agonists: TR-FRET-based biochemical high throughput dose response assay to identify inverse agonists of the interaction between peroxisome proliferator-activated receptor gamma (PPARg) and nuclear receptor co-repressor 2 (NCOR2). In kind it is functional.

For test [4], the target named is T1, Endoribonuclease toxin MazF. As to the kind of experiment: activation of MazEF endoribonuclease cleavage – biochemical, fluorescence, single-stranded RNA substrate, uHTS hits, dose response (AID 588481). In kind it is functional.
Another test deals with T2, Caspase-3 (Homo sapiens, UniProt P42574).
T2 sequence (P42574 whole entry): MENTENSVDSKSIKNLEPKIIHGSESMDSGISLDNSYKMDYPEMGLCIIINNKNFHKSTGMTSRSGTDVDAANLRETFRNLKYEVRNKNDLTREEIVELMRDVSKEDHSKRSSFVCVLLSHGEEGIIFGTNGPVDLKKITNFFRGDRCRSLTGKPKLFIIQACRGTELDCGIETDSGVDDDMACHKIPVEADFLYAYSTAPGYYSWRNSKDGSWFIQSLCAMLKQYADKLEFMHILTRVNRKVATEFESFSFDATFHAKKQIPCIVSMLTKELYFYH
As to the kind of experiment: inhibition of recombinant caspase-3 activity – biochemical, luminescence, set 2, selectivity assay for SENP protease inhibitor project, SAR follow-up (AID 588599). In kind it is functional.

Test [5] concerns the target T3, Sentrin-specific protease 6 (Homo sapiens, UniProt Q9GZR1).
T3 sequence (Q9GZR1 whole entry): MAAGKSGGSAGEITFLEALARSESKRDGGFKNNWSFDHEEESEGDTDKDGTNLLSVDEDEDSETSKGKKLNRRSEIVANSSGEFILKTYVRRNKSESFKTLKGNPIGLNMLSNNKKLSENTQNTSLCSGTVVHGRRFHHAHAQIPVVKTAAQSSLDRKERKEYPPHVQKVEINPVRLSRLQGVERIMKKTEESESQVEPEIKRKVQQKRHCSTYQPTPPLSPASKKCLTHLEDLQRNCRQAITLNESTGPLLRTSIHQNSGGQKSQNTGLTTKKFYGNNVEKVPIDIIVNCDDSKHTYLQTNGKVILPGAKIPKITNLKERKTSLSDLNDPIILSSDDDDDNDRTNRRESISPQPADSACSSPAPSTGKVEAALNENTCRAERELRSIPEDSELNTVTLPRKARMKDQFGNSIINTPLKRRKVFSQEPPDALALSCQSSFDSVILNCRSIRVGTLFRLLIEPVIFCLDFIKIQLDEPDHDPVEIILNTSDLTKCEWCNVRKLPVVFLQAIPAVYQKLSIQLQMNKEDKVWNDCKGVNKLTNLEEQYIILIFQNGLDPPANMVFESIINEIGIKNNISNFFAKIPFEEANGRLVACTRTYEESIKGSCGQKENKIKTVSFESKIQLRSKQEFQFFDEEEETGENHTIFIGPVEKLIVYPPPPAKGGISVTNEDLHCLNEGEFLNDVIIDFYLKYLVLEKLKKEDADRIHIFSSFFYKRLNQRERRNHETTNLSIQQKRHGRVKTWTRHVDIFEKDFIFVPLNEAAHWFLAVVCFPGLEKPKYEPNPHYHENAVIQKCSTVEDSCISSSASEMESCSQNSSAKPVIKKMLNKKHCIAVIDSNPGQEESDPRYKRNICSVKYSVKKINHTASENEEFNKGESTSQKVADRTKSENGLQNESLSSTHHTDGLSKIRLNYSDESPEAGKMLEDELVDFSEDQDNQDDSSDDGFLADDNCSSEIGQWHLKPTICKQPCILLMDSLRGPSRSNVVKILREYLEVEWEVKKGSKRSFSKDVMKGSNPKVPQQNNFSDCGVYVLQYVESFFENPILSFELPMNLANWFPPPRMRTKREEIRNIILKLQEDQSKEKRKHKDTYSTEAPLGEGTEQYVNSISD
Put plainly: inhibition of human SENP6 catalytic domain – biochemical, luminescence, set 2, SAR follow-up (AID 588598). The class given is functional.

Test [6] deals with T4, Sentrin-specific protease 8 (Homo sapiens, UniProt Q96LD8).
T4 sequence (Q96LD8 whole entry): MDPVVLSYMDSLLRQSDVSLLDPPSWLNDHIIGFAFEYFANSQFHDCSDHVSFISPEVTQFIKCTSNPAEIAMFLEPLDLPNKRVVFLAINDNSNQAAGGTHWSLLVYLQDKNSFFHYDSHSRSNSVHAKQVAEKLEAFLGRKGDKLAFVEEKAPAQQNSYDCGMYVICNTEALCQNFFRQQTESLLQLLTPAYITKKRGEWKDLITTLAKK
Put plainly: inhibition of sentrin protease 8 – biochemical, luminescence, set 2, SAR follow-up (AID 588601). The class given is functional.

Test [7] has as its target T5, Sentrin-specific protease 7 (Homo sapiens, UniProt Q9BQF6).
T5 sequence (Q9BQF6 whole entry): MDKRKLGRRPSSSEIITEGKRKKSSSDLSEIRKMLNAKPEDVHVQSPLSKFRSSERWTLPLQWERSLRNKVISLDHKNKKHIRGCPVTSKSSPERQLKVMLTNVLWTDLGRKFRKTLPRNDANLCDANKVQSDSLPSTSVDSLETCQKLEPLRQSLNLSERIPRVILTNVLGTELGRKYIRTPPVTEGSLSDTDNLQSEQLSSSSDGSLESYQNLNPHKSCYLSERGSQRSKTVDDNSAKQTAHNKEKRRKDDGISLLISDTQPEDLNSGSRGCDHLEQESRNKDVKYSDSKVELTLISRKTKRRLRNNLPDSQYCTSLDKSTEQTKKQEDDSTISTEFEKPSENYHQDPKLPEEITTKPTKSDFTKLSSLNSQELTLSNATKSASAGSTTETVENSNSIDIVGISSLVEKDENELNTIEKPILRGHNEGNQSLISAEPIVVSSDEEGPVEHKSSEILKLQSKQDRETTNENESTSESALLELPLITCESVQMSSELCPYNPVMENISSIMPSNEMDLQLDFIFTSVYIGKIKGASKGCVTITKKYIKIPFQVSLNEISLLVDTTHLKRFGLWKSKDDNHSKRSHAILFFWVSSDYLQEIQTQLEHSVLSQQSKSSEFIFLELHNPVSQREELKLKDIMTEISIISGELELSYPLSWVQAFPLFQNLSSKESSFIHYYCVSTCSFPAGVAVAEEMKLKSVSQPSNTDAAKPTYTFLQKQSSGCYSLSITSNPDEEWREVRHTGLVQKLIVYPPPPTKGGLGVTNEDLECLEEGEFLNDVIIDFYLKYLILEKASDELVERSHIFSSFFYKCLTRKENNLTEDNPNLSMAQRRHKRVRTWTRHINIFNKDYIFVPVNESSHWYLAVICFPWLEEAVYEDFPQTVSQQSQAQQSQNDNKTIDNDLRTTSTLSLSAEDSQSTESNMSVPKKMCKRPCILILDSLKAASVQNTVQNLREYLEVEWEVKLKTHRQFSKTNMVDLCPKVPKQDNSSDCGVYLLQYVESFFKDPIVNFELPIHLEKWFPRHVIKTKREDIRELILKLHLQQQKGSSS
As to the kind of experiment: inhibition of human SENP7 cleavage activity – biochemical, luminescence, set 2, SAR follow-up (AID 588600). In kind it is functional.

For test [8], the target named is T6, Ubiquitin-conjugating enzyme E2 N (Homo sapiens, UniProt P61088).
T6 sequence (P61088 whole entry): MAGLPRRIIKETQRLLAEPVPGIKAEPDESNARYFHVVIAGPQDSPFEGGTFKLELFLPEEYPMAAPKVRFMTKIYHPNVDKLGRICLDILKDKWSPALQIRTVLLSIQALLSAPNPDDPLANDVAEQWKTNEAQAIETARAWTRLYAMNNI
The class given is functional.

The nature of test [9]: DRD fibroblast viability loss – cell-based, non-viral oncogenic, luminescence, dose response (AID 1934). The settings on record: Homo sapiens. In kind it is functional.
For test [10], the target named is C-C chemokine receptor type 6 (Homo sapiens, UniProt P51684). Put plainly: antagonism of CCR6 beta-arrestin recruitment – cell-based, luminescent beta-arrestin readout, dose response (AID 504728). The class given is functional. (In general: Arrestin recruitment assays detect the binding of arrestin to an activated receptor.)
Chain of C-C chemokine receptor type 6 (P51684 whole entry): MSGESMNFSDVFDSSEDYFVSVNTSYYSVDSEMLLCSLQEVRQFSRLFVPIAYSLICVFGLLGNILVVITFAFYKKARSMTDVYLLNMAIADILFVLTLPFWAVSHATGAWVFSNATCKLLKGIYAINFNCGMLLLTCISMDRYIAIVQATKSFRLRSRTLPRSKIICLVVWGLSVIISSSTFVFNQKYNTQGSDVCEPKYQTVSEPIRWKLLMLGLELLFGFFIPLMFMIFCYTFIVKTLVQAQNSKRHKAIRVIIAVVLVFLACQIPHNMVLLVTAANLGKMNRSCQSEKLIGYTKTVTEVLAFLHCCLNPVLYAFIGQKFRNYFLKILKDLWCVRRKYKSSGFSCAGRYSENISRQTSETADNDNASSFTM
Test [11] can be described thus: Luminescence Cell-Based Dose Response HTS to Identify Inhibitors of 5'UTR Stem-Loop Driven Prion Protein mRNA Translation in H4 Neuroglioblastoma Cells. [Related pubchem assays: 1827 (Project Summary), 1813 (Primary HTS)]. The class given is functional.
In a further test the target is Beta-galactosidase (Escherichia coli, UniProt Q8VNN2). Put plainly: detection-enzyme interference by beta-gal modulators – biochemical, E. coli enzyme, set 3, artefact control for CCR6 antagonist project, dose response (AID 504712). The class given is functional.
Chain of Beta-galactosidase (Q8VNN2 whole entry): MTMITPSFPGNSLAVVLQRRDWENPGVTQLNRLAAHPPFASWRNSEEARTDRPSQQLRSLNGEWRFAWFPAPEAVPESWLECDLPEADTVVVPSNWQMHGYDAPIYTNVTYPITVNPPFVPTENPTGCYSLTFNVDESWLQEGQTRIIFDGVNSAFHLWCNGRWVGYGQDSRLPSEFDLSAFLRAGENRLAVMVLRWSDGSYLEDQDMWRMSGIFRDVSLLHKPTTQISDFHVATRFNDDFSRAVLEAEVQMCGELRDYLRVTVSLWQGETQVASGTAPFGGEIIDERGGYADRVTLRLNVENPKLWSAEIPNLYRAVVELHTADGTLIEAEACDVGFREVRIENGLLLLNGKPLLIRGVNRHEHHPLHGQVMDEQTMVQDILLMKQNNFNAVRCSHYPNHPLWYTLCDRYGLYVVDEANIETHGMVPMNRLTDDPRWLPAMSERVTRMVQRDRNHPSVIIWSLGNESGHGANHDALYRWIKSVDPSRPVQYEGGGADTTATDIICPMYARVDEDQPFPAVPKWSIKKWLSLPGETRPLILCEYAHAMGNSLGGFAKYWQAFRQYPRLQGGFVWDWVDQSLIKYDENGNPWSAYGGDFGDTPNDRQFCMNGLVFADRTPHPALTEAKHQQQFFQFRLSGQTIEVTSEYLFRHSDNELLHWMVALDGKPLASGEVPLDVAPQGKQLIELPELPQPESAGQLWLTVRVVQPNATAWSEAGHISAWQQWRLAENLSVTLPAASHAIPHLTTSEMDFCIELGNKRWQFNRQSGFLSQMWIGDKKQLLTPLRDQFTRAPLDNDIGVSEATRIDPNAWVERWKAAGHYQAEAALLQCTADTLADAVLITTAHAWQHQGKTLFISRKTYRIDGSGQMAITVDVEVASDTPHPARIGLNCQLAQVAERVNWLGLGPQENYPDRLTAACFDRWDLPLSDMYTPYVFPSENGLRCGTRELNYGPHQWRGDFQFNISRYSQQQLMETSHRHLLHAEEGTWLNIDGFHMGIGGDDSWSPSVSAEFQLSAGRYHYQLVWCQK
Test [12] in a line: luciferase reporter signal suppression in cells – H4 neuroglioma cells, luminescence, dose response (AID 1990). The class given is functional, cell-based.
The target of test [13] is T6, Ubiquitin-conjugating enzyme E2 N. In kind it is functional. The source holds these as a separate data set.
Test [14] concerns BJ. Put plainly: BJ-TERT-LT-ST fibroblast viability loss – cell-based, RAS-independent, luminescence, dose response (AID 1935).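 Also: BJ fibroblasts immortalized with TERT plus LT and ST oncogenes.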 The settings on record: Homo sapiens. In kind it is functional.
The nature of test [15]: general cell-killing toxicity readout – plate reader, dry powder samples, cytotoxicity control for PAX8 inhibitor project, dose response (AID 743021). In kind it is functional, cell-based.
The test system of test [16] is BJ. As to the kind of experiment: cells. The class given is functional, cell-based. The note with it: Homo sapiens.
The target of test [17] is T7, DNA repair protein RAD52 homolog (Homo sapiens, UniProt P43351).
T7 sequence (P43351 whole entry): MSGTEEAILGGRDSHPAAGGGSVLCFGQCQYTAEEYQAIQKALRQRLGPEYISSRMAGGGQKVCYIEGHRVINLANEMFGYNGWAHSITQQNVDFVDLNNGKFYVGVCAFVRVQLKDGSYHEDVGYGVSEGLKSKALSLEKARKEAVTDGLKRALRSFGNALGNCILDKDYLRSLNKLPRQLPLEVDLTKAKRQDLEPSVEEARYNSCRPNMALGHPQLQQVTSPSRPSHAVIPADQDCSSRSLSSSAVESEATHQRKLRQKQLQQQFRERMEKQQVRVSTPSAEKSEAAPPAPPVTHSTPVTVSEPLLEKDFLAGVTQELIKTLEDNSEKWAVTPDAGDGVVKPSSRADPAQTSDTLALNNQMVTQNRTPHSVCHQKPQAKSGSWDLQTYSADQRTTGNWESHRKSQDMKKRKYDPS
In kind it is functional, biochemical.

Test [18] concerns BJ. Put plainly: BJ-TERT fibroblast viability loss – cell-based, RAS-independent, luminescence, dose response (AID 1933). The class given is functional. The settings on record: Homo sapiens.
A further test concerns the target T8, Bcl-2-related protein A1 (Mus musculus, UniProt Q07440).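 Also: confirmatory dose–response counterscreen on Bfl-1, used to check hits from a UBC13 polyubiquitin inhibitor campaign.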
T8 sequence (Q07440 whole entry): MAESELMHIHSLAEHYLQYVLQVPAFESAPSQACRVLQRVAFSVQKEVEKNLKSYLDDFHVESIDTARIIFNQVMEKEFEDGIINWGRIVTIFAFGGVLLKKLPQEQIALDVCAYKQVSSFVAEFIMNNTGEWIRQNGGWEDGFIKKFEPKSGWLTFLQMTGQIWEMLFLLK
The class given is functional.

For the next test, the target named is Paired box protein Pax-8 (Homo sapiens, UniProt Q06710). Put plainly: PAX8 transcriptional activity inhibition in RMG-I – RMG-I cells, luciferase, cherry-pick, dose response (AID 687027).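 Also: luciferase reporter driven by Pax8 target thyroperoxidase promoter measured by SteadyGlo luminescence.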 The class given is functional, cell-based.
Chain of Paired box protein Pax-8 (Q06710 whole entry): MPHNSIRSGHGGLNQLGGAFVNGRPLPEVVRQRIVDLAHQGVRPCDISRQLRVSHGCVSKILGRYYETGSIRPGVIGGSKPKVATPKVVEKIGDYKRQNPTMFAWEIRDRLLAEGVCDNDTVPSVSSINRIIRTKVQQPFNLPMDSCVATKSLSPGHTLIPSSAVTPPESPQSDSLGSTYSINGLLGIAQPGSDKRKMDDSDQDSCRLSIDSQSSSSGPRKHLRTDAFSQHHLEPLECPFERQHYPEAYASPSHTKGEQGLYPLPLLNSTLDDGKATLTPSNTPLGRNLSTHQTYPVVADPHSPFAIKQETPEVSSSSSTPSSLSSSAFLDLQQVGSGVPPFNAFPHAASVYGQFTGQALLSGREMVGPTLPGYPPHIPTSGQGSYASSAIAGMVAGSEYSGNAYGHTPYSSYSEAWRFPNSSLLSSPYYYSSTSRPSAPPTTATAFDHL
The nature of test [19]: alpha-synuclein stem-loop luciferase translation blockers – H4 neuroglioma cells, luminescence, confirmation (AID 1988). The class given is functional, cell-based.
The test system of test [20] is BJ. Put plainly: growth inhibition of engineered Ras-driven BJ cells – cell-based, alamar blue fluorescence, cherrypicked samples, dose response (AID 2631).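 Also: confirmatory dose-response assay in RAS-dependent BJ fibroblasts engineered with TERT, LT and ST, with cytotoxicity read by fluorescence.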 In kind it is functional. The settings on record: Homo sapiens.

Structures can show the parent of a compound that is named as a salt. The source made the active and inactive calls.

Chain of Peroxisome proliferator-activated receptor gamma/Nuclear receptor corepressor 2 (P37231 whole entry): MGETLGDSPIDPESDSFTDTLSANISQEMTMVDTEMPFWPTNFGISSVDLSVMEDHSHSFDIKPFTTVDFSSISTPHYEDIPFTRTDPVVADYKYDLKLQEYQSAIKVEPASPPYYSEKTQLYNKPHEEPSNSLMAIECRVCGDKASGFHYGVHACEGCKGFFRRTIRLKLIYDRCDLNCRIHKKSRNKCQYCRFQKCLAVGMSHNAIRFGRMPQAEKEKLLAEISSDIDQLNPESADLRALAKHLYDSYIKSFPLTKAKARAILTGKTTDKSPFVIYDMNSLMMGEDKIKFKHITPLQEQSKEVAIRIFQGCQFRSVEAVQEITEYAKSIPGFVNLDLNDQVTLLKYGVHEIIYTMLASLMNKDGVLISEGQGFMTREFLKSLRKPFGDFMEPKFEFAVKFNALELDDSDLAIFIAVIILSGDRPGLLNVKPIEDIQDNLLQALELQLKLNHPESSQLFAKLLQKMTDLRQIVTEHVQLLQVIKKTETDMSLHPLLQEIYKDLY
Chain of Peroxisome proliferator-activated receptor gamma/Nuclear receptor corepressor 2 (Q9Y618 whole entry): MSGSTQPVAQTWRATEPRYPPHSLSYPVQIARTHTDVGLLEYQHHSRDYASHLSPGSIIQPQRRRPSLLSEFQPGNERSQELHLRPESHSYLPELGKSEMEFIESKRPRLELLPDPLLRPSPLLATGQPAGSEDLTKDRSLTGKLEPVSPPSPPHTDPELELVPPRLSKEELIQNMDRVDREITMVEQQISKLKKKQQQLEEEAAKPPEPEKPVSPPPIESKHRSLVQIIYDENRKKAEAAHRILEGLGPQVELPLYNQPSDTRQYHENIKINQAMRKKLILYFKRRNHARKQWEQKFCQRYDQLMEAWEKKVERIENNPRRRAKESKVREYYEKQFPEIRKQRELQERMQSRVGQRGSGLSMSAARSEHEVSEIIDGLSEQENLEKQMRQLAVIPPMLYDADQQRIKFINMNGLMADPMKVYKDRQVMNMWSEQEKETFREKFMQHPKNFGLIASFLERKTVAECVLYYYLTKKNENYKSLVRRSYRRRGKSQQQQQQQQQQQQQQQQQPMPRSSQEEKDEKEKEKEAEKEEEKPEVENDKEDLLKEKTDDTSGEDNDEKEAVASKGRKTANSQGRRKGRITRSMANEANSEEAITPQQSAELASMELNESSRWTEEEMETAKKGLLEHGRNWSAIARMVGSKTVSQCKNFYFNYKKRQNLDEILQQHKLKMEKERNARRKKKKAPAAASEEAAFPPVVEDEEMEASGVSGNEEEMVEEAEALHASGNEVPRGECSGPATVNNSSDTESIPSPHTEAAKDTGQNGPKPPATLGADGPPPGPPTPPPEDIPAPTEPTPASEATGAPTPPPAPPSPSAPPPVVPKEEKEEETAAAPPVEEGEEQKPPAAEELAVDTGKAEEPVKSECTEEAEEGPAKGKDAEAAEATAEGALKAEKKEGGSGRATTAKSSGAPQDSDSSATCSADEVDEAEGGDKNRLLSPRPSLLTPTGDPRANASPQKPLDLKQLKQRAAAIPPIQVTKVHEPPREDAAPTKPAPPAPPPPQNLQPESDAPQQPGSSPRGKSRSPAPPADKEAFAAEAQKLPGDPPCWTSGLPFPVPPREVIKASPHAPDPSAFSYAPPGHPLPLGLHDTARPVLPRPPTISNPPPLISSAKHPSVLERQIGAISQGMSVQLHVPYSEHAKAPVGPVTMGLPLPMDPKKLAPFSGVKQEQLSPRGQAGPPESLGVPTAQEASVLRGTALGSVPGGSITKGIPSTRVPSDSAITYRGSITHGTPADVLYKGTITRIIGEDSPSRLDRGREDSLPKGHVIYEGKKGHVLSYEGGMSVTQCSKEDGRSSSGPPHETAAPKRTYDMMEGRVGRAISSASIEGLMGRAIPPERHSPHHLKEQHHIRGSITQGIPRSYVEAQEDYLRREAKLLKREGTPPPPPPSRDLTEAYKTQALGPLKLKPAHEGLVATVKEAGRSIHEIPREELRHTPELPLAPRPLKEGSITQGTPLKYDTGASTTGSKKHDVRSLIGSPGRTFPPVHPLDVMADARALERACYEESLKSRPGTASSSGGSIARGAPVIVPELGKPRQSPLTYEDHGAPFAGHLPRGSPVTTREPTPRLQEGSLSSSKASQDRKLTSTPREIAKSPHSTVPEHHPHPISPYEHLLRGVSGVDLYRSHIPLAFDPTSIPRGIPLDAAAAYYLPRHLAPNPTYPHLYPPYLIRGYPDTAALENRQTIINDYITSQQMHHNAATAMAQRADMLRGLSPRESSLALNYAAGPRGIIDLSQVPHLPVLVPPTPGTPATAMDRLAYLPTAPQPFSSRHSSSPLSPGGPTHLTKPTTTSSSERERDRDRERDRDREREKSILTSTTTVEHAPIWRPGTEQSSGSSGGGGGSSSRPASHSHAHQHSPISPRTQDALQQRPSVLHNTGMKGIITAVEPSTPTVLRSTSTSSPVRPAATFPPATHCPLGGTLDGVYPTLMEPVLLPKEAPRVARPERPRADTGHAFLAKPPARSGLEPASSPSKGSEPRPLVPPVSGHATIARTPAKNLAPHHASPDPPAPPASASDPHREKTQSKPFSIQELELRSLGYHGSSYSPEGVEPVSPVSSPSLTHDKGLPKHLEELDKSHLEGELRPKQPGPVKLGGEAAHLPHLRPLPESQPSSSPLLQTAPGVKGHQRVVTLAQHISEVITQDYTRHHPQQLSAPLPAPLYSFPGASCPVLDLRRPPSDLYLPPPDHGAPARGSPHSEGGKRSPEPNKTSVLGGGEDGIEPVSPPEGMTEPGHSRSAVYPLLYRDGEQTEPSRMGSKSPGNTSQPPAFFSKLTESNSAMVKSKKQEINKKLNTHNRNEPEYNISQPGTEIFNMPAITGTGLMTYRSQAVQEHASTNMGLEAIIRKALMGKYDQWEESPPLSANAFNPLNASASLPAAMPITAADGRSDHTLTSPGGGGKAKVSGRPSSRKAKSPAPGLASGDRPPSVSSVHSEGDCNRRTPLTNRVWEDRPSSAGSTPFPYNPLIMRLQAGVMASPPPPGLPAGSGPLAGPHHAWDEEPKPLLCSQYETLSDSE

On to `Cn1nc(-c2ccc(C(=O)Nc3cccc(Cl)c3)cc2)c2ccccc2c1=O`, for which the concentration for half-maximal inhibition (IC50) in test [1] was 3.95 µM (active); in [3] it was 1.78 µM (active). The EC50 in [2] was 14.8 µM (active); in test [4], 57.9 µM (inactive).

As to `O=C1CN(C(=O)C(=O)c2c[nH]c3ccccc23)c2ccccc2N1`, the IC50 (at Caspase-3; in test [5]; in test [6]; in test [7]) was > 99 µM (inactive) throughout.

In the case of `CCCCCNC(=N)N/N=C/c1c[nH]c2ccc(OC)cc12` [TEGASEROD MALEATE], the IC50 in [8] was 12.5 µM (active); in test [10], 23.4 µM (inactive); on Beta-galactosidase, > 66.6 µM (inactive); in test [13], 8.2 µM (active); on Bcl-2-related protein A1, > 20 µM (inactive). Further, the EC50 in test [9] is 5.36 µM (inconclusive); in [11] it was > 120 µM (not active); in test [12], > 60 µM (not active); in the test on BJ [14] it was 3.94 µM (active); in the test on BJ [16] it was 7.15 µM (active); with BJ [18], 5.21 µM (inconclusive). Also, the EC50 was 7.96 µM (active) in [19] and 3.92 µM (inconclusive) in the test with BJ [20]. Moreover, the AC50 in test [15] is 23.2 µM (active); in test [17] it was 16.7 µM (active); on Paired box protein Pax-8, 12.4 µM (active).

Values taken from ChEMBL document CHEMBL1201862, “PubChem BioAssay data set” (2004).
